Laboratory results taken from ChEMBL document CHEMBL3867482, “Design and synthesis of water soluble β-aminosulfone analogues of SCH 900229 as γ-secretase inhibitors” (Bioorg Med Chem Lett, 2016).
Values after ≈ are worked out from the molar mass of the structure shown. Each block holds one compound with its values, some of them ahead of it.

Tests used:
[1] = target: Cytochrome P450 2D6 (Homo sapiens, UniProt P10635); assay: Inhibition of CYP2D6 in human liver microsomes after 30 secs by LC/MS/MS analysis; type: ADME
[2] = test system: Mus musculus; assay: Antialzheimer activity in B6C3F1 mouse assessed as amyloid beta 40 level in cortex at 10 mg/kg, po administered as single dose after 3 hrs relative to control; type: functional
[3] = test system: Mus musculus; assay: Antialzheimer activity in B6C3F1 mouse assessed as amyloid beta 40 level in plasma at 10 mg/kg, po administered as single dose after 3 hrs relative to control; type: functional
[4] = AUC (0 to 6 hrs) in mouse at 10 mg/kg, po by LC/MS/MS analysis; type: ADME, organism-based; design: time < 6 hr, dose 10 mg/kg, route oral; conditions: in vivo
[5] = Clearance in human hepatocytes assessed per million cells by HPLC/atmospheric pressure chemical ionization/MS analysis; type: ADME, cell-based, Hepatocyte; conditions: read-out: CLH
[6] = target: Cytochrome P450 2C9 (Homo sapiens, UniProt P11712); assay: Inhibition of CYP2C9 in human liver microsomes after 30 secs by LC/MS/MS analysis; type: ADME
[7] = target: T1, Cytochrome P450 3A4 (Homo sapiens, UniProt P08684); assay: Inhibition of CYP3A4 in human liver microsomes preincubated for 30 mins after 30 secs by LC/MS/MS analysis; type: ADME
[8] = Clearance in monkey hepatocytes assessed per million cells by HPLC/atmospheric pressure chemical ionization/MS analysis; type: ADME, cell-based, Macaca mulatta, Hepatocyte; conditions: rhesus monkey, read-out: CLH
[9] = Clearance in rat hepatocytes assessed per million cells by HPLC/atmospheric pressure chemical ionization/MS analysis; type: ADME, cell-based, Hepatocyte; conditions: read-out: CLH
[10] = target: T1, Cytochrome P450 3A4; assay: Inhibition of CYP3A4 in human liver microsomes after 30 secs by LC/MS/MS analysis; type: ADME
[11] = Inhibition of gamma-secretase in HEK293 cell membranes expressing human APP Swedish/London double mutant assessed as reduction in amyloid beta 40 formation after 1 hr by electrochemiluminescence based immunoassay
[12] = Clearance in dog hepatocytes assessed per million cells by HPLC/atmospheric pressure chemical ionization/MS analysis; type: ADME, cell-based, Canis lupus familiaris, Hepatocyte; conditions: read-out: CLH
[13] = Kinetic solubility of compound; type: physicochemical; conditions: read-out: Kinetic_solubility
[14] = Selectivity ratio of IC50 for human gamma secretase PS2 (1 to 467 residues) expressed in baculovirus infected sf9 cells co-expressing aph-1a to IC50 for gamma secretase PS1 (1 to 448 residues) expressed in baculovirus infected sf9 cells co-expressing aph-1a
[15] = Ratio of drug level in brain to plasma in mouse at 6 hrs; type: ADME, organism-based; conditions: brain and plasma, read-out: BPR

T1 sequence (P08684 whole entry): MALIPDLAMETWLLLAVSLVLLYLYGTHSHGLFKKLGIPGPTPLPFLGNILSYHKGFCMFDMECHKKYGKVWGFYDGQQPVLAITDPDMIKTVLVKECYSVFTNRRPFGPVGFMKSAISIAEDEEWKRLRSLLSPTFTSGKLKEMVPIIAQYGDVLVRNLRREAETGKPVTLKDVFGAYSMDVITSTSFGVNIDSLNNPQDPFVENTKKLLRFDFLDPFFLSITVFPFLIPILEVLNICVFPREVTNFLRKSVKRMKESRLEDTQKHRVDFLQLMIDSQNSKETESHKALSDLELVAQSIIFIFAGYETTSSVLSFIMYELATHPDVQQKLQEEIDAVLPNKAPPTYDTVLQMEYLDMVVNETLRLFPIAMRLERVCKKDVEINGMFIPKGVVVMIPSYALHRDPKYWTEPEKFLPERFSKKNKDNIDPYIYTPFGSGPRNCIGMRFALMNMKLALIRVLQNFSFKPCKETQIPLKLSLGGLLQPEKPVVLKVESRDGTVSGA
Chain of Cytochrome P450 2D6 (P10635 whole entry): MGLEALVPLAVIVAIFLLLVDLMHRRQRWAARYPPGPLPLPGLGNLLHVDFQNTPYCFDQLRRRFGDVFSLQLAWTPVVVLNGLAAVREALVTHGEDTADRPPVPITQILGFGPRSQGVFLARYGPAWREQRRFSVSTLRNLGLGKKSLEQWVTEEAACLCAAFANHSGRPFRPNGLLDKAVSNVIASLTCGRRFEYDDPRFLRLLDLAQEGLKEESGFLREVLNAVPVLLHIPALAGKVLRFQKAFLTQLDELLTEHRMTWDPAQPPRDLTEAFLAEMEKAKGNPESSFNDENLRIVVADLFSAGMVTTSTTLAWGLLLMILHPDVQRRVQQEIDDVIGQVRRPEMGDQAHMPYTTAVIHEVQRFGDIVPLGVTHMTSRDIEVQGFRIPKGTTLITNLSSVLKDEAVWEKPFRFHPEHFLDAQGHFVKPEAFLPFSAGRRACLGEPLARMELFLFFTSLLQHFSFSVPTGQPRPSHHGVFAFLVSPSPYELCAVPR
Chain of Cytochrome P450 2C9 (P11712 whole entry): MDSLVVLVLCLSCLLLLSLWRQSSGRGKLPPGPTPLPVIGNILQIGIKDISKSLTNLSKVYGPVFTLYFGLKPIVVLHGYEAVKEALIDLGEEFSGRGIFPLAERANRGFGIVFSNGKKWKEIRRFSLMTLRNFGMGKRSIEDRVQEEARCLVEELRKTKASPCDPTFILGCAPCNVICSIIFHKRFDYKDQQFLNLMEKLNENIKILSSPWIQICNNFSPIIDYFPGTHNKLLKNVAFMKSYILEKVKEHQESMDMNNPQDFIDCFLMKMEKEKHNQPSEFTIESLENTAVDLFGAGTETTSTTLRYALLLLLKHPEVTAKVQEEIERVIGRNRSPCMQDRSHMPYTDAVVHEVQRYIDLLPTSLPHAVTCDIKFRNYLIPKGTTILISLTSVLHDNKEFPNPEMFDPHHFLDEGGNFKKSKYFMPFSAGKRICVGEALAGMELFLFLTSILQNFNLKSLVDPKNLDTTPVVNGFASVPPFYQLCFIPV

SMILES: NCCS(=O)(=O)CC[C@@H]1OCC[C@@]2(S(=O)(=O)c3ccc(Cl)cc3)c3c(F)ccc(F)c3OC[C@@H]12
IC50 [1]: > 20000 nM
Activity [2]: -52%
Activity [3]: -54%
AUC(0-t) at 6 h [4]: 0.582 µM·h
hepatocyte CLint [5]: 8.5 µL/min/1e6 cells
IC50 [6]: > 20000 nM
IC50 [7]: 2800 nM
hepatocyte CLint [8]: 20.3 µL/min/1e6 cells
hepatocyte CLint [9]: 12.1 µL/min/1e6 cells
IC50 [10]: 15100 nM
IC50 [11]: 0.8 nM
hepatocyte CLint [12]: 6.4 µL/min/1e6 cells

SMILES: Cl.O=S(=O)(CC[C@@H]1OCC[C@@]2(S(=O)(=O)c3ccc(Cl)cc3)c3c(F)ccc(F)c3OC[C@@H]12)C[C@H]1CCCN1
solubility kinetic [13]: ≥ 200 µM

SMILES: O=S(=O)(CC[C@@H]1OCC[C@@]2(S(=O)(=O)c3ccc(Cl)cc3)c3c(F)ccc(F)c3OC[C@@H]12)C[C@@H]1CCCN1
Kp at 6 h [15]: 0.6
IC50 [1]: > 20000 nM
Activity [2]: -48%
Activity [3]: -57%
AUC(0-t) at 6 h [4]: 0.674 µM·h
hepatocyte CLint [5]: 5.6 µL/min/1e6 cells
IC50 [6]: > 20000 nM
IC50 [7]: 1000 nM
hepatocyte CLint [8]: 26.7 µL/min/1e6 cells
hepatocyte CLint [9]: 15.2 µL/min/1e6 cells
IC50 [10]: > 20000 nM
IC50 [11]: 0.7 nM
hepatocyte CLint [12]: 12.5 µL/min/1e6 cells

SMILES: Cl.O=S(=O)(CC[C@@H]1OCC[C@@]2(S(=O)(=O)c3ccc(Cl)cc3)c3c(F)ccc(F)c3OC[C@@H]12)C1CNC1
solubility kinetic [13]: > 200 µM

SMILES: O=S(=O)(CC[C@@H]1OCC[C@@]2(S(=O)(=O)c3ccc(Cl)cc3)c3c(F)ccc(F)c3OC[C@@H]12)[C@@H]1CCNC1
Ratio IC50 [14]: 21

SMILES: CNCCS(=O)(=O)CC[C@@H]1OCC[C@@]2(S(=O)(=O)c3ccc(Cl)cc3)c3c(F)ccc(F)c3OC[C@@H]12
Ratio IC50 [14]: 25

SMILES: O=S(=O)(CC[C@@H]1OCC[C@@]2(S(=O)(=O)c3ccc(Cl)cc3)c3c(F)ccc(F)c3OC[C@@H]12)CCN1CCCC1
Ratio IC50 [14]: 13
IC50 [11]: 1.1 nM

SMILES: Cl.O=S(=O)(CC[C@@H]1OCC[C@@]2(S(=O)(=O)c3ccc(Cl)cc3)c3c(F)ccc(F)c3OC[C@@H]12)C[C@@H]1CCCN1
solubility kinetic [13]: ≥ 200 µM

SMILES: CCNCCS(=O)(=O)CC[C@@H]1OCC[C@@]2(S(=O)(=O)c3ccc(Cl)cc3)c3c(F)ccc(F)c3OC[C@@H]12
Ratio IC50 [14]: 18

SMILES: Cl.NCCS(=O)(=O)CC[C@@H]1OCC[C@@]2(S(=O)(=O)c3ccc(Cl)cc3)c3c(F)ccc(F)c3OC[C@@H]12
solubility kinetic [13]: ≥ 200 µM

SMILES: Cl.O=S(=O)(CC[C@@H]1OCC[C@@]2(S(=O)(=O)c3ccc(Cl)cc3)c3c(F)ccc(F)c3OC[C@@H]12)[C@H]1CCNC1
solubility kinetic [13]: ≥ 200 µM

Further lines, with some results ahead:

solubility kinetic [13]: ≥ 200 µM
SMILES: CCNCCS(=O)(=O)CC[C@@H]1OCC[C@@]2(S(=O)(=O)c3ccc(Cl)cc3)c3c(F)ccc(F)c3OC[C@@H]12.Cl

solubility kinetic [13]: > 200 µM
IC50 [11]: 1 nM
SMILES: O=S(=O)(CCO)CC[C@@H]1OCC[C@@]2(S(=O)(=O)c3ccc(Cl)cc3)c3c(F)ccc(F)c3OC[C@@H]12
Activity [2]: -46%
Activity [3]: -42%

IC50 [11]: 0.6 nM
SMILES: O=S(=O)(CC[C@@H]1OCC[C@@]2(S(=O)(=O)c3ccc(Cl)cc3)c3c(F)ccc(F)c3OC[C@@H]12)CCN1CC[C@@H](O)C1
Ratio IC50 [14]: 12

IC50 [1]: > 20000 nM
AUC(0-t) at 6 h [4]: 0.057 µM·h
hepatocyte CLint [5]: 13.7 µL/min/1e6 cells
IC50 [6]: > 20000 nM
solubility kinetic [13]: 20 µM (≈ 11.5 µg/mL)
IC50 [7]: 1000 nM
hepatocyte CLint [8]: 32 µL/min/1e6 cells
hepatocyte CLint [9]: 25.9 µL/min/1e6 cells
IC50 [10]: 13200 nM
IC50 [11]: 5.9 nM
hepatocyte CLint [12]: 20.1 µL/min/1e6 cells
SMILES: O=S(=O)(CC[C@@H]1OCC[C@@]2(S(=O)(=O)c3ccc(Cl)cc3)c3c(F)ccc(F)c3OC[C@@H]12)CC1=NCCN1
Activity [3]: -86%

IC50 [11]: 3.7 nM
SMILES: O=S(=O)(CC[C@@H]1OCC[C@@]2(S(=O)(=O)c3ccc(Cl)cc3)c3c(F)ccc(F)c3OC[C@@H]12)CCN1CCOCC1
Ratio IC50 [14]: 10

IC50 [11]: 0.8 nM
SMILES: O=S(=O)(CC[C@@H]1OCC[C@@]2(S(=O)(=O)c3ccc(Cl)cc3)c3c(F)ccc(F)c3OC[C@@H]12)CCN1CC[C@H](O)C1
Ratio IC50 [14]: 12

IC50 [11]: 1.3 nM
SMILES: O=S(=O)(CC[C@@H]1OCC[C@@]2(S(=O)(=O)c3ccc(Cl)cc3)c3c(F)ccc(F)c3OC[C@@H]12)C1CNC1
Activity [3]: -15%
